Source: patent US10973831B2, “Fluoropiperidine compounds as pure 5-HT 6 receptor antagonists” (SUVEN LIFE SCIENCES LIMITED, priority 2017, dated 2021)

Columns and labels:
[1] = target: T1, recombinant human 5-HT6 receptor (Homo sapiens, UniProt P50406); test: Determination of Kb for 5-HT6 receptor (CHO cells, pCRE-Luc reporter, cAMP); format: cell-based; conditions: 10 μM serotonin, luciferase reporter
T1 construct: expressed in transfected cells
Protocol: Determination of Kb for 5-HT6 Receptor: A stable CHO cell line expressing recombinant human 5-HT6 receptor and pCRE-Luc reporter system was used for cell based assay. The assay offers a non-radioactive based approach to determine binding of a compound to GPCRs. In this specific assay, the level of intracellular cyclic AMP which is modulated by activation or inhibition of the receptor is measured. The recombinant cells harbor luciferase reporter gene under the control of cAMP response element. The above cells were plated in 96 well clear bottom white plates at a density of 5×10^4 cells/well using Hams F12 medium containing 10% fetal bovine serum (FBS) and incubated overnight at 37° C. and 5% CO2 followed by serum starvation for 18-20 hrs. Increasing concentrations of test compounds were added along with 10 μM serotonin in Opti-MEM to the cells. The incubation was continued at 37° C. in CO2 incubator for 4 hours. After 4 hours cells were lysed using lysis buffer and luciferase assay buffer was added to each well and counts per second were recorded using luminescence counter. From counts per second (CPS) obtained, percent binding was calculated for each well by taking 10 μM 5-HT as 100% bound and vehicle as 0% bound. The percent bound values were plotted against compound concentrations and data were analyzed using a nonlinear, iterative curve-fitting computer program of Graph pad Prism 4 software. The Kb values were calculated using concentration of the agonist used in the assay.

[2] = Rodent pharmacokinetic study; format: in vivo, male Wistar rats; conditions: male, Wistar, plasma, rat
Protocol: Male Wistar rats (260±50 grams) were used as experimental animals. Animals were housed individually in polypropylene cage. Two days prior to study, male Wistar rats were anesthetized with isoflurane for surgical placement of jugular vein catheter. Rats were randomly divided for oral (3 mg/kg) and intravenous (1 mg/kg) dosing (n=3/group) and fasted overnight before oral dosing (p.o.). However, rats allocated to intravenous dosing food and water was provided ad libitum.
At pre-determined point, blood was collected through jugular vein and replenished with an equivalent volume of normal saline. Collected blood was transferred into a labeled eppendorf tube containing 10 μL, of heparin as an anticoagulant. Typically blood samples were collected at following time points: 0.08, 0.25, 0.5, 1, 2, 4, 6, 8, and 24 hours post dose. Blood was centrifuged at 4000 rpm for 10 minutes. Plasma was separated and stored frozen at −80° C. until analysis. The concentrations of the test compounds were quantified in plasma by qualified LC-MS/MS method using suitable extraction technique. The test compounds were quantified in the calibration range around 1-1000 ng/mL in plasma. Study samples were analyzed using calibration samples in the batch and quality control samples spread across the batch.
Pharmacokinetic parameters Cmax, AUC1, T1/2, Clearance and Bioavailability (F) were calculated by non-compartmental model using standard non-compartmental model by using Phoenix WinNonlin 6.2 or 6.4 version Software package.

T1 sequence (P50406 whole entry): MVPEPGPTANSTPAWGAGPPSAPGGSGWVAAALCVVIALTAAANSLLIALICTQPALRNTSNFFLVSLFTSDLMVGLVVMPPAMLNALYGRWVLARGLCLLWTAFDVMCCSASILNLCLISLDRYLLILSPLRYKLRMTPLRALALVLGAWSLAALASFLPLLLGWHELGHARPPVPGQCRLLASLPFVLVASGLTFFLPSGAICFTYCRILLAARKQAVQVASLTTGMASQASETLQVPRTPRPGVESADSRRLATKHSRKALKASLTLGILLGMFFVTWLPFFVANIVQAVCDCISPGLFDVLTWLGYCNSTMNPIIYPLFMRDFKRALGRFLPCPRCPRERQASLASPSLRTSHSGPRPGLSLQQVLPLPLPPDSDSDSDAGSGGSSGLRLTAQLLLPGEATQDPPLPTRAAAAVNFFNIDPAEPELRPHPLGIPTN

## Cl.O=S(=O)(c1ccccc1)c1ccc2c(c1)OCCN2C1CCNCC1F (single isomer, unassigned; peak iii) [Example 1, 7-Phenylsulfonyl-4-(3-fluoropiperidin-4-yl)-3,4-dihydro-2H-benzo[1,4]oxazine hydrochloride (Peak III)]
[1]
  Kb: 40 pM
[2]; intravenous (bolus), 1 mg/kg
  AUC(0-t): 412 ± 37 ng·h/mL
  clearance: 40 ± 3 mL/min/kg
  half-life: 4.5 ± 0.1 h
[2]; oral (gavage) 3 mg/kg vs intravenous 1 mg/kg, read-out: F (Bioavailability)
  bioavailability: 81 ± 1%
[2]; oral (gavage), 3 mg/kg
  AUC(0-t): 1000 ± 15 ng·h/mL
  Cmax: 84 ± 14 ng/mL
  half-life: 5.6 ± 0.9 h
